Laboratory results taken from PMC11785675, “Phase Ib study of the oral PI3Kδ inhibitor linperlisib in patients with advanced solid tumors” (International Journal of Clinical Oncology, 2024).

Experiments:
[1] = test system: CT26 cancer model; conditions: preclinical findings, no reference given; cited from earlier work
[2] = Phase Ib trial: pharmacokinetics of linperlisib 80 mg once daily; format: in vivo, human
Method: Pharmacokinetic analysis included the first 13 patients enrolled in this study who received linperlisib at 80 mg once daily.

[3] = single-dose 14C-YY-20394 tracer study; cited from earlier work
[4] = test system: malignant B cells and primary tumor cell lines; conditions: preclinical data, no reference given; cited from earlier work
[5] = test system: patients with advanced solid tumors; conditions: 80 mg/day oral;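 further: phase Ib open-label single-arm trial, once-daily dosing in 28-day cycles, adverse events graded by NCI CTCAE v5.0, recorded until at least 30 days post last dose, incidence as patient counts and percentages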
Method: (§1) This phase Ib, single-arm, open-label, multi-center clinical trial recruited patients with advanced or metastatic solid tumors from eight sites in China.
(§2) The main exclusion criteria included prior use of PI3K targeted agents and clinically symptomatic central nervous system metastasis or meningeal metastasis.
(§3) Patients received oral linperlisib 80 mg once per day, taken with warm water either 1 h prior to or 2 h after a meal every day, in a 28-day cycle. Dose adjustments, including holds and reductions, were mandated for grade 3/4 hematologic and grade 3 non-hematologic toxicity. Treatment with linperlisib continued until disease progression, intolerable toxicity, withdrawal of informed consent, death or any other conditions deemed by the investigator to warrant drug discontinuation.
(§4) Physical examination, assessment of ECOG performance status, clinical laboratory evaluations, electrocardiogram, and other safety evaluations were conducted to assess safety. AEs were graded according to the National Cancer Institute Common Terminology Criteria for Adverse Events (CTCAE), Version 5.0. All AEs were recorded from the time of signing the informed consent to at least 30 days after the last dose, and were followed until resolution or stabilization. Patients underwent radiographic assessments every 8 weeks by enhanced computed tomography or magnetic resonance imaging according to RECIST 1.1.
(§5) The primary endpoint was safety as assessed by monitoring the frequency, duration, and severity of AEs. Secondary endpoints were efficacy endpoints, including ORR, DCR, and progression-free survival (PFS).
(§6) Baseline data are presented descriptively. ORR is determined by the proportion of patients who achieve a confirmed complete response (CR) or partial response (PR) as the best overall response, and is presented with CIs. PFS and overall survival (OS) curves are generated using the Kaplan–Meier method. The incidence of AEs and serious AEs (SAEs) are reported as numbers and percentages.

[6] = test system: advanced solid tumors; test: Phase Ib trial of oral linperlisib: efficacy (RECIST 1.1); format: in vivo, human; conditions: 80 mg/day oral;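 further: Open-label single-arm multicenter study in China, once-daily dosing over 28-day cycles, response judged by contrast CT or MRI every 8 weeks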
Method: as §1, §2, §3, §4, §5, §6

[7] = test system: relapsed or refractory B-cell hematological malignancies; design: method as in PMID 34425850; conditions: phase Ia, cited from earlier work

## COc1ncc(-c2nc(N3CCOCC3)nc3c(CN4CCC(C(C)(C)O)CC4)cc(F)cc23)cc1NS(C)(=O)=O [linperlisib]
[1]
  Tumor volume: reduced tumor volume
[2]; 80 mg once daily
  Accumulation after multiple administrations: no accumulation was observed
[2]; 80 mg once daily, cycle 1, day 7, range 68.4–232
  Trough levels: 167.7 ng/mL
[2]; 80 mg once daily, listed as Linperlisib
  Accumulation after multiple administrations: no accumulation is observed
[2]; 80 mg oral
  Absorption after a single dose: rapidly absorbed
[2]; human, plasma, single dose oral 80 mg qd, n = 13, read-out: Vz/F, mean (SD)
  Vd/F: 251 L
[2]; human, single dose oral 80 mg qd, n = 13, plasma, read-out: AUC0-24, mean (SD)
  AUC(0-t): 4920 ng·h/mL
[2]; human, single dose oral 80 mg qd, n = 13, plasma, read-out: AUC0-∞, mean (SD)
  AUC(0-inf): 7260 ng·h/mL
[2]; human, single dose oral 80 mg qd, n = 13, plasma, read-out: Cmax, mean (SD)
  Cmax: 364 ng/mL
[2]; human, single dose oral 80 mg qd, n = 13, plasma, read-out: MRT, median (range)
  MRT: 18.9 h
[2]; human, single dose oral 80 mg qd, n = 13, plasma, read-out: T1/2, mean (SD) (converted)
  half-life: 14.3 h
[2]; human, single dose oral 80 mg qd, n = 13, plasma, read-out: Tmax, median (range)
  Tmax: 3.9 h
[2]; single dose oral 80 mg qd, n = 13
  CL/F, mean (SD): 13.5 (4.9) L/h
[3]
  Route of excretion: primarily excreted through the kidneys
[4]
  Apoptosis and proliferation: induce apoptosis and inhibit the proliferation
[5]
  Incidence of hyperglycemia related to linperlisib, ≥ grade 3: 0%
[5]; 94 patients
  Grade ≥ 3 TEAE anemia: 3.2%
  Grade ≥ 3 TEAE diarrhea: 4.3%
  Grade ≥ 3 TEAE increased ALT: 3.2%
  Grade ≥ 3 TEAE increased AST: 3.2%
  Grade ≥ 3 TEAE increased blood alkaline phosphatase: 3.2%
  Grade ≥ 3 TEAE neutropenia: 3.2%
  Patients who suspended linperlisib due to TRAEs: 19.1%
  Patients who terminated linperlisib due to vomiting, esophagitis, gastritis, or drug eruption: 2.1%
  Patients who withdrew from the trial because of TRAEs: 5.3%
  Patients with SAEs related to linperlisib: 10.6%
  Patients with TEAEs of grade 3 or greater: 45.7%
  Patients with TRAEs of grade 3 or greater: 28.7%
  Patients with at least one TEAE: 97.9%
  Patients with at least one treatment-related AE (TRAE): 89.4%
  Patients with dose reduction (elevated γ-glutamyltransferase and diarrhea): 2.1%
  TEAE abdominal pain, all grades: 11 (11.7) n (%)
  TEAE abdominal pain, grade ≥ 3: 1 (1.1) n (%)
  TEAE anemia, all grades: 20 (21.3) n (%)
  TEAE anemia, all grades irrespective of causality: 21.3%
  TEAE anemia, grade ≥ 3: 3 (3.2) n (%)
  TEAE asthenia, all grades: 15 (16.0) n (%)
  TEAE asthenia, grade ≥ 3: 0 n (%)
  TEAE decreased appetite, all grades: 24 (25.5) n (%)
  TEAE decreased appetite, all grades irrespective of causality: 25.5%
  TEAE decreased appetite, grade ≥ 3: 1 (1.1) n (%)
  TEAE diarrhea, all grades: 11 (11.7) n (%)
  TEAE diarrhea, grade ≥ 3: 4 (4.3) n (%)
  TEAE elevated γ-glutamyltransferase, all grades: 18 (19.1) n (%)
  TEAE elevated γ-glutamyltransferase, grade ≥ 3: 2 (2.1) n (%)
  TEAE hypercholesterolemia, all grades: 12 (12.8) n (%)
  TEAE hypercholesterolemia, grade ≥ 3: 1 (1.1) n (%)
  TEAE hypertriglyceridemia, all grades: 10 (10.6) n (%)
  TEAE hypertriglyceridemia, grade ≥ 3: 0 n (%)
  TEAE hypoalbuminemia, all grades: 15 (16.0) n (%)
  TEAE hypoalbuminemia, grade ≥ 3: 0 n (%)
  TEAE hyponatremia, all grades: 15 (16.0) n (%)
  TEAE hyponatremia, grade ≥ 3: 1 (1.1) n (%)
  TEAE increased ALT, all grades: 21 (22.3) n (%)
  TEAE increased ALT, all grades irrespective of causality: 22.3%
  TEAE increased ALT, grade ≥ 3: 3 (3.2) n (%)
  TEAE increased AST, all grades: 25 (26.6) n (%)
  TEAE increased AST, all grades irrespective of causality: 26.6%
  TEAE increased AST, grade ≥ 3: 3 (3.2) n (%)
  TEAE increased blood alkaline phosphatase, all grades: 15 (16.0) n (%)
  TEAE increased blood alkaline phosphatase, grade ≥ 3: 3 (3.2) n (%)
  TEAE increased blood bilirubin, all grades: 16 (17.0) n (%)
  TEAE increased blood bilirubin, grade ≥ 3: 1 (1.1) n (%)
  TEAE increased blood creatinine, all grades: 18 (19.1) n (%)
  TEAE increased blood creatinine, grade ≥ 3: 2 (2.1) n (%)
  TEAE increased blood lactate dehydrogenase, all grades: 13 (13.8) n (%)
  TEAE increased blood lactate dehydrogenase, grade ≥ 3: 0 n (%)
  TEAE leukopenia, all grades: 16 (17.0) n (%)
  TEAE leukopenia, grade ≥ 3: 1 (1.1) n (%)
  TEAE nausea, all grades: 16 (17.0) n (%)
  TEAE nausea, grade ≥ 3: 0 n (%)
  TEAE neutropenia, all grades: 13 (13.8) n (%)
  TEAE neutropenia, grade ≥ 3: 3 (3.2) n (%)
  TEAE protein urine present, all grades: 10 (10.6) n (%)
  TEAE protein urine present, grade ≥ 3: 0 n (%)
  TEAE proteinuria, all grades: 25 (26.6) n (%)
  TEAE proteinuria, all grades irrespective of causality: 26.6%
  TEAE proteinuria, grade ≥ 3: 0 n (%)
  TEAE pyrexia, all grades: 10 (10.6) n (%)
  TEAE pyrexia, grade ≥ 3: 0 n (%)
  TEAE rash, all grades: 14 (14.9) n (%)
  TEAE rash, grade ≥ 3: 2 (2.1) n (%)
  TEAE vomiting, all grades: 15 (16.0) n (%)
  TEAE vomiting, grade ≥ 3: 2 (2.1) n (%)
  TEAE weight loss, all grades: 20 (21.3) n (%)
  TEAE weight loss, all grades irrespective of causality: 21.3%
  TEAE weight loss, grade ≥ 3: 0 n (%)
  TRAE decreased appetite: 18.1%
  TRAE elevated γ-glutamyltransferase: 16.0%
  TRAE increased ALT: 18.1%
  TRAE increased AST: 22.3%
  TRAE proteinuria: 21.3%
  TRAEs leading to death: No TRAEs leading to death were reported
[5]; 94 patients, 29 SAEs
  Patients with SAEs of grade 3 or greater: 27.7%
[5]; 94 patients, data cutoff April 03, 2023
  Patients who discontinued treatment due to AEs: 21.3%
[5]; 94 patients, thirty-five SAEs
  Patients with SAEs: 30.9%
[5]; all grades
  Incidence of hyperglycemia related to linperlisib: 2.1%
[5]; compared with other PI3K inhibitors
  Incidence of diarrhea, colitis, and hepatotoxicity: very low
[6]
  DCR in patients with thymic carcinoma: 50%
  DCR, patients with less than three prior lines of therapy: 46.3%
[6]; 94 patients
  Progressive disease as best response: Thirty-nine
  Stable disease: 34 patients
[6]; 94 patients, 95% CI 1.79–1.88
  Median progression-free survival (PFS): 1.85 months
[6]; 94 patients, median follow-up 4.2 months
  Median overall survival (OS): not reached
[6]; 94 patients, one thymoma patient
  Complete response (CR) rate: 1.1%
[6]; all 94 patients, 95% CI 0.0–5.8
  Objective response rate (ORR): 1.1%
[6]; all 94 patients, 95% CI 27.5–47.8
  Disease control rate (DCR): 37.2%
[6]; n = 1
  DCR, anal cancer: 1 (100.0) n (%)
  DCR, endometrial cancer: 0 (0.0) n (%)
  DCR, esophageal cancer: 0 (0.0) n (%)
  DCR, lung neuroendocrine carcinoma: 1 (100.0) n (%)
  DCR, lung squamous cell carcinoma: 0 (0.0) n (%)
  DCR, oral cavity cancer: 1 (100.0) n (%)
  DCR, ovarian cancer: 1 (100.0) n (%)
  DCR, pancreatic cancer: 1 (100.0) n (%)
  DCR, parotid carcinoma: 0 (0.0) n (%)
  DCR, thymoma: 1 (100.0) n (%)
  ORR, anal cancer: 0 (0.0) n (%)
  ORR, endometrial cancer: 0 (0.0) n (%)
  ORR, esophageal cancer: 0 (0.0) n (%)
  ORR, lung neuroendocrine carcinoma: 0 (0.0) n (%)
  ORR, lung squamous cell carcinoma: 0 (0.0) n (%)
  ORR, oral cavity cancer: 0 (0.0) n (%)
  ORR, ovarian cancer: 0 (0.0) n (%)
  ORR, pancreatic cancer: 0 (0.0) n (%)
  ORR, parotid carcinoma: 0 (0.0) n (%)
  ORR, thymoma: 1 (100.0) n (%)
[6]; n = 2
  DCR, carcinoma of renal pelvis: 1 (50.0) n (%)
  DCR, cholangiocarcinoma: 0 (0.0) n (%)
  DCR, hepatocellular carcinoma: 0 (0.0) n (%)
  ORR, carcinoma of renal pelvis: 0 (0.0) n (%)
  ORR, cholangiocarcinoma: 0 (0.0) n (%)
  ORR, hepatocellular carcinoma: 0 (0.0) n (%)
[6]; n = 3
  DCR, gallbladder cancer: 2 (66.7) n (%)
  DCR, nasopharyngeal carcinoma: 2 (66.7) n (%)
  ORR, gallbladder cancer: 0 (0.0) n (%)
  ORR, nasopharyngeal carcinoma: 0 (0.0) n (%)
[6]; n = 4
  DCR, gastric cancer: 1 (25.0) n (%)
  ORR, gastric cancer: 0 (0.0) n (%)
[6]; n = 5
  DCR, renal cell carcinoma: 2 (40.0) n (%)
  ORR, renal cell carcinoma: 0 (0.0) n (%)
[6]; n = 6
  DCR, lung adenocarcinoma: 3 (50.0) n (%)
  ORR, lung adenocarcinoma: 0 (0.0) n (%)
[6]; n = 8
  DCR, breast cancer: 1 (12.5) n (%)
  ORR, breast cancer: 0 (0.0) n (%)
[6]; n = 9
  DCR, sarcoma: 3 (33.3) n (%)
  ORR, sarcoma: 0 (0.0) n (%)
[6]; n = 11
  DCR, colon cancer: 3 (27.3) n (%)
  ORR, colon cancer: 0 (0.0) n (%)
[6]; n = 13
  DCR, rectal cancer: 3 (23.1) n (%)
  ORR, rectal cancer: 0 (0.0) n (%)
[6]; n = 16
  DCR, thymic carcinoma: 8 (50.0) n (%)
  ORR, thymic carcinoma: 0 (0.0) n (%)
[6]; n = 25
  DCR, lung and mediastinal tumors, total: 13 (52.0) n (%)
  ORR, lung and mediastinal tumors, total: 1 (4.0) n (%)
[6]; n = 31
  DCR, other types of tumor, total: 11 (35.5) n (%)
  ORR, other types of tumor, total: 0 (0.0) n (%)
[6]; n = 38
  DCR, gastrointestinal tumors, total: 11 (28.9) n (%)
  ORR, gastrointestinal tumors, total: 0 (0.0) n (%)
[6]; thymoma, gallbladder cancer, anal canal squamous cell carcinoma, renal cell carcinoma, renal pelvis cancer
  Shrinkage of target lesions: more than 20%
[6]; two patients with HCC
  Target lesion change in patients with HCC: one of them had shrinkage of target lesions
[7]; 20 to 200 mg, 16/25, 95% CI 45.2–82.8
  Objective response rate (ORR): 64%
[7]; 20 to 200 mg, 18/25, 95% CI 54.4–89.6
  Disease control rate (DCR): 72%
[7]; highest 200 mg/day dose
  Dose-limiting toxicities: no dose-limiting toxicities were observed
